In brackets after ≈: the same amount, converted by molar mass. Where two headings read alike, the source gives them in different places.
Key:
[1] = test system: E. coli GC 2235; assay: MIC, broth microdilution; conditions: Escherichia coli, GC2235, E. coli GC 2235
[2] = test system: E. coli GC 1073; assay: MIC, broth microdilution; conditions: Escherichia coli, GC1073, E. coli GC 1073
[3] = test system: E. coli GC 2233; assay: MIC, broth microdilution; conditions: Escherichia coli, GC2233, E. coli GC 2233
[4] = test system: E. coli GC 2236; assay: MIC, broth microdilution; conditions: Escherichia coli, GC2236, E. coli GC 2236
[5] = test system: S. pyogenes GC 4563; assay: MIC, broth microdilution; conditions: Streptococcus pyogenes, GC4563, S. pyogenes GC 4563
[6] = test system: Staph. aureus Smith; assay: In vivo activity (oral, iv; ED50) against Staph. aureus Smith in mice
Description: Representative examples of compounds of Formula I were tested for the oral efficacy using S. aureus Smith in mice.

[7] = test system: c. albicans GC 3066; assay: MIC, broth microdilution
[8] = test system: S. aureus GC 2216; assay: MIC, broth microdilution; conditions: Staphylococcus aureus, GC2216, S. aureus GC 2216
[9] = test system: S. pneumoniae+ GC 4465; assay: MIC, broth microdilution; conditions: Streptococcus pneumoniae, S. pneumoniae+ GC 4465
[10] = test system: S. aureus GC 1079; assay: MIC, broth microdilution; conditions: Staphylococcus aureus, GC1079, S. aureus GC 1079
[11] = test system: E. coli GC 2234; assay: MIC, broth microdilution; conditions: Escherichia coli, GC2234, E. coli GC 2234
[12] = test system: E. faecium GC 4556; assay: MIC, broth microdilution; conditions: Enterococcus faecium, GC4556, E. faecium GC 4556
[13] = test system: S. aureus GC 6335; assay: MIC, broth microdilution; conditions: Staphylococcus aureus, GC6335, S. aureus GC 6335
[14] = test system: S. aureus GC 1131; assay: MIC, broth microdilution; conditions: Staphylococcus aureus, GC1131, S. aureus GC 1131
[15] = test system: E. coli GC 4559; assay: MIC, broth microdilution; conditions: Escherichia coli, GC4559, E. coli GC 4559
[16] = test system: E. coli GC 2271; assay: MIC, broth microdilution; conditions: Escherichia coli, GC2271, E. coli GC 2271
Description: Antimicrobial susceptibility testing. The in vitro activities of the antibiotics are determined by the broth microdilution method as recommended by the National Committee for Clinical Laboratory Standards (NCCLS) (1). Mueller-Hinton II broth (MHBII)(BBL Cockeysville, Md.) is the medium employed in the testing procedures. Microtiter plates containing serial dilutions of each antimicrobial agent are inoculated with each organism to yield the appropriate density (10^5 CFU/ml) in a 100 μl final volume. The plates are incubated for 18-22 hours at 35° C. in ambient air.
Representative compounds were first incubated in mouse serum for an hour prior to the in vitro testing against a panel of selected gram-positive and gram-negative bacteria strains. All compounds were also pre-incubated in water for an hour prior to testing as control.

[17] = test system: P. aeruginosa GC 2214; assay: MIC, broth microdilution; conditions: Pseudomonas aeruginosa, GC2214, P. aeruginosa GC 2214
[18] = test system: S. epidermidis GC 4935; assay: MIC, broth microdilution; conditions: Staphylococcus epidermidis, GC4935, S. epidermidis GC 4935
[19] = test system: E. faecalis GC 2242; assay: MIC, broth microdilution; conditions: Enterococcus faecalis, GC2242, E. faecalis GC 2242
[20] = test system: E. coli GC 2270; assay: MIC, broth microdilution; conditions: Escherichia coli, GC2270, E. coli GC 2270
[21] = Staphylococcus aureus, in Mus musculus, po, read-out: ED50 Staph Smith SOD
[22] = iv, read-out: ED50 Staph Smith SIV
[23] = c. albicans GC 3066, Water pre-incubation

Compound: CCCCN(CC(=O)Nc1cc(N(C)C)c2c(c1O)C(=O)C1=C(O)[C@]3(O)C(=O)C(C(N)=O)=C(O)[C@@H](N(C)C)[C@@H]3C[C@@H]1C2)C(=O)OCOC(=O)C(C)(C)C [Example 13, ({[(2-{[(5aR,6aS,7S,10aS)-9-(aminocarbonyl)-4,7-bis(dimethylamino)-1,8,10a,11-tetrahydroxy-10,12-dioxo-5,5a,6,6a,7,10,10a,12-octahydrotetracen-2-yl]amino}-2-oxoethyl)(butyl)amino]carbonyl}oxy)methyl pivalate]
- MIC ([1]; Mouse Serum pre-incubation): 2 µg/mL (≈ 2.69 µM)
- MIC ([1]; Water pre-incubation): 8 µg/mL (≈ 10.8 µM)
- MIC ([2]; Mouse Serum pre-incubation): 2 µg/mL (≈ 2.69 µM)
- MIC ([2]; Water pre-incubation): 16 µg/mL (≈ 21.5 µM)
- MIC ([3]; Mouse Serum pre-incubation): 2 µg/mL (≈ 2.69 µM)
- MIC ([3]; Water pre-incubation): 8 µg/mL (≈ 10.8 µM)
- MIC ([4]; Mouse Serum pre-incubation): 2 µg/mL (≈ 2.69 µM)
- MIC ([4]; Water pre-incubation): 8 µg/mL (≈ 10.8 µM)
- MIC ([5]; Mouse Serum pre-incubation): 0.5 µg/mL (≈ 0.672 µM)
- MIC ([5]; Water pre-incubation): 1 µg/mL (≈ 1.34 µM)
- ED50 [6, 21]: 11 mg/kg
- ED50 [6, 22]: 0.82 mg/kg
- MIC ([7]; Candida albicans, GC3066): > 64 µg/mL
- MIC [7, 23]: >64 UG/ML
- MIC ([8]; Mouse Serum pre-incubation): 2 µg/mL (≈ 2.69 µM)
- MIC ([8]; Water pre-incubation): 4 µg/mL (≈ 5.38 µM)
- MIC ([9]; Mouse Serum pre-incubation): 8 µg/mL (≈ 10.8 µM)
- MIC ([9]; Water pre-incubation): 8 µg/mL (≈ 10.8 µM)
- MIC ([10]; Mouse Serum pre-incubation): 4 µg/mL (≈ 5.38 µM)
- MIC ([10]; Water pre-incubation): 4 µg/mL (≈ 5.38 µM)
- MIC ([11]; Mouse Serum pre-incubation): 1 µg/mL (≈ 1.34 µM)
- MIC ([11]; Water pre-incubation): 8 µg/mL (≈ 10.8 µM)
- MIC ([12]; Mouse Serum pre-incubation): 2 µg/mL (≈ 2.69 µM)
- MIC ([12]; Water pre-incubation): 8 µg/mL (≈ 10.8 µM)
- MIC ([13]; Mouse Serum pre-incubation): 2 µg/mL (≈ 2.69 µM)
- MIC ([13]; Water pre-incubation): 4 µg/mL (≈ 5.38 µM)
- MIC ([14]; Mouse Serum pre-incubation): 2 µg/mL (≈ 2.69 µM)
- MIC ([14]; Water pre-incubation): 2 µg/mL (≈ 2.69 µM)
- MIC ([15]; Mouse Serum pre-incubation): 4 µg/mL (≈ 5.38 µM)
- MIC ([15]; Water pre-incubation): 16 µg/mL (≈ 21.5 µM)
- MIC ([16]; Mouse Serum pre-incubation): 2 µg/mL (≈ 2.69 µM)
- MIC ([16]; Water pre-incubation): 8 µg/mL (≈ 10.8 µM)
- MIC ([17]; Mouse Serum pre-incubation): 32 µg/mL (≈ 43 µM)
- MIC ([17]; Water pre-incubation): > 64 µg/mL
- MIC ([18]; Mouse Serum pre-incubation): 4 µg/mL (≈ 5.38 µM)
- MIC ([18]; Water pre-incubation): 8 µg/mL (≈ 10.8 µM)
- MIC ([19]; Mouse Serum pre-incubation): 4 µg/mL (≈ 5.38 µM)
- MIC ([19]; Water pre-incubation): 8 µg/mL (≈ 10.8 µM)
- MIC ([20]; Mouse Serum pre-incubation): 1 µg/mL (≈ 1.34 µM)
- MIC ([20]; Water pre-incubation): 8 µg/mL (≈ 10.8 µM)

Compound: CCCN(CC(=O)Nc1cc(N(C)C)c2c(c1O)C(=O)C1=C(O)[C@]3(O)C(=O)C(C(N)=O)=C(O)[C@@H](N(C)C)[C@@H]3C[C@@H]1C2)C(=O)OCOC(=O)c1ccc(F)cc1 [Example 8, ({[(2-{[(5aR,6aS,7S,10aS)-9-(aminocarbonyl)-4,7-bis(dimethylamino)-1,8,10a,11-tetrahydroxy-10,12-dioxo-5,5a,6,6a,7,10,10a,12-octahydrotetracen-2-yl]amino}-2-oxoethyl)(propyl)amino]carbonyl}oxy)methyl 4-fluorobenzoate]
- MIC ([1]; Mouse Serum pre-incubation): 1 µg/mL (≈ 1.3 µM)
- MIC ([1]; Water pre-incubation): 16 µg/mL (≈ 20.8 µM)
- MIC ([2]; Mouse Serum pre-incubation): 1 µg/mL (≈ 1.3 µM)
- MIC ([2]; Water pre-incubation): 32 µg/mL (≈ 41.7 µM)
- MIC ([3]; Mouse Serum pre-incubation): 1 µg/mL (≈ 1.3 µM)
- MIC ([3]; Water pre-incubation): 32 µg/mL (≈ 41.7 µM)
- MIC ([4]; Mouse Serum pre-incubation): 1 µg/mL (≈ 1.3 µM)
- MIC ([4]; Water pre-incubation): 32 µg/mL (≈ 41.7 µM)
- MIC ([5]; Mouse Serum pre-incubation): 0.12 µg/mL (≈ 0.156 µM)
- MIC ([5]; Water pre-incubation): 0.5 µg/mL (≈ 0.651 µM)
- ED50 [6, 21]: 16.6 mg/kg
- ED50 [6, 22]: 0.48 mg/kg
- MIC ([7]; Candida albicans, GC3066): > 64 µg/mL
- MIC [7, 23]: >64 UG/ML
- MIC ([8]; Mouse Serum pre-incubation): 0.5 µg/mL (≈ 0.651 µM)
- MIC ([8]; Water pre-incubation): 4 µg/mL (≈ 5.21 µM)
- MIC ([9]; Mouse Serum pre-incubation): 1 µg/mL (≈ 1.3 µM)
- MIC ([9]; Water pre-incubation): 4 µg/mL (≈ 5.21 µM)
- MIC ([10]; Mouse Serum pre-incubation): 2 µg/mL (≈ 2.6 µM)
- MIC ([10]; Water pre-incubation): 4 µg/mL (≈ 5.21 µM)
- MIC ([11]; Mouse Serum pre-incubation): 1 µg/mL (≈ 1.3 µM)
- MIC ([11]; Water pre-incubation): 32 µg/mL (≈ 41.7 µM)
- MIC ([12]; Mouse Serum pre-incubation): 1 µg/mL (≈ 1.3 µM)
- MIC ([12]; Water pre-incubation): 4 µg/mL (≈ 5.21 µM)
- MIC ([13]; Mouse Serum pre-incubation): 1 µg/mL (≈ 1.3 µM)
- MIC ([13]; Water pre-incubation): 4 µg/mL (≈ 5.21 µM)
- MIC ([14]; Mouse Serum pre-incubation): 1 µg/mL (≈ 1.3 µM)
- MIC ([14]; Water pre-incubation): 2 µg/mL (≈ 2.6 µM)
- MIC ([15]; Mouse Serum pre-incubation): 1 µg/mL (≈ 1.3 µM)
- MIC ([15]; Water pre-incubation): 64 µg/mL (≈ 83.4 µM)
- MIC ([16]; Mouse Serum pre-incubation): 1 µg/mL (≈ 1.3 µM)
- MIC ([16]; Water pre-incubation): 32 µg/mL (≈ 41.7 µM)
- MIC ([17]; Mouse Serum pre-incubation): 32 µg/mL (≈ 41.7 µM)
- MIC ([17]; Water pre-incubation): > 64 µg/mL
- MIC ([18]; Mouse Serum pre-incubation): 2 µg/mL (≈ 2.6 µM)
- MIC ([18]; Water pre-incubation): 8 µg/mL (≈ 10.4 µM)
- MIC ([19]; Mouse Serum pre-incubation): 1 µg/mL (≈ 1.3 µM)
- MIC ([19]; Water pre-incubation): 4 µg/mL (≈ 5.21 µM)
- MIC ([20]; Mouse Serum pre-incubation): 1 µg/mL (≈ 1.3 µM)
- MIC ([20]; Water pre-incubation): 64 µg/mL (≈ 83.4 µM)

Reference: US20070049564A1 (Wyeth, priority 2005, published 2007)
